Data published in patent US11972843B2, “Systems and methods for predicting adverse events and assessing level of sedation during medical procedures” (Massachusetts Institute of Technology, priority 2015, dated 2024).

System: patients receiving propofol during procedural sedation
Settings: 23 patients; per patient, average of the pharmacokinetic-model effect-site concentrations at end of procedure with all boluses and with the last bolus removed
From the text: The start and end of the procedure were marked by the clinical staff who collected the data. The average of the “all drugs” value and the “last drug removed” value at the time of the end of the procedure constitutes, in this illustrative embodiment, an estimate of the titration threshold that the clinician aims to remain above between the start and end of the procedure.
The titration threshold for each patient was established as described in connection with FIG. 17, namely: the start and end of the procedure were marked by the clinical staff who collected the data; the end-procedure effect-site concentration, shown on the y-axis, of each patient was estimated with all drug administrations, and again without the final bolus administration; and the average of these two values was taken as the estimated titration threshold for that patient. […] The titration threshold is estimated at the time the procedure ends since the proceduralist deems it necessary to administer a final bolus in order to render the patient's sedation level sufficient to endure the procedure.

SMILES: CC(C)c1cccc(C(C)C)c1O [propofol]
- mean of the estimated titration thresholds (end-procedure effect-site concentration): 1.72 micrograms/milliliter
